From article PMC8523698, “Preclinical characterization of an intravenous coronavirus 3CL protease inhibitor for the potential treatment of COVID19” (Nature Communications, 2021)
Several values for one entry are separate records, joined by “and”; a condition that tells them apart may be missing. Equal values may be shown once. Read-outs that look alike come from different tables or passages of the source.

Tests used:
SARS-CoV-2 = test: microbe, parasite or virus in culture; assay type: cell-based; settings: Severe acute respiratory syndrome coronavirus 2, Vero C1008; N=3; read-out: EC50 ± Std. Dev
[1] = LogD shake-flask measurement at pH 7.4; settings: 1-octanol/0.1 M sodium phosphate buffer
HKU9-CoV 3CL^pro = HKU9-CoV 3CL^pro (Bat coronavirus HKU9, UniProt P0C6W5); assay type: biochemical; settings: for Initial Velocity: triplicate, listed as Compound F2
HKU9-CoV 3CL^pro, sequence (P0C6W5 3104-3409 limits assumed): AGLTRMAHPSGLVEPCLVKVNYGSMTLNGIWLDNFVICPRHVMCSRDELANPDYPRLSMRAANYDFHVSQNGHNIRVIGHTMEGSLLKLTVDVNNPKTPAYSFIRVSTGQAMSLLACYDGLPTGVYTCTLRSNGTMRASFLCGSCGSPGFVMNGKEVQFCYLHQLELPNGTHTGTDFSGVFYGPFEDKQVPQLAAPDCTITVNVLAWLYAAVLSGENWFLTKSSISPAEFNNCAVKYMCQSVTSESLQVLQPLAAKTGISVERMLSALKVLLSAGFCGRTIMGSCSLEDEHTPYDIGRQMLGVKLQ

OC43-CoV 3CL^pro = OC43-CoV 3CL^pro (Human coronavirus OC43, UniProt P0C6X6); assay type: biochemical
OC43-CoV 3CL^pro, sequence (P0C6X6 3247-3549): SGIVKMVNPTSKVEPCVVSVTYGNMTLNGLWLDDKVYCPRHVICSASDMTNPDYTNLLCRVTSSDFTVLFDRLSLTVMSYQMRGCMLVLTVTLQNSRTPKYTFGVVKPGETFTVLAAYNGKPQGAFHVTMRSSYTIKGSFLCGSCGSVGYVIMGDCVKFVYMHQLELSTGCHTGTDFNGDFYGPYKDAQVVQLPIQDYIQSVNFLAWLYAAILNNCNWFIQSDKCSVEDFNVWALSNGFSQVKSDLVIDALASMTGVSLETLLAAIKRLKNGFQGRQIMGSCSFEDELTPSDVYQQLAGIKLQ

[2] = Rat 4-day continuous intravenous infusion exploratory non-GLP toxicity study
[3] = PBPK modeling (Simcyp) of DDI with itraconazole
HKU1-CoV 3CL^pro = HKU1-CoV 3CL^pro (Human coronavirus HKU1, UniProt P0C6X2); test: biochemical
HKU1-CoV 3CL^pro, sequence (P0C6X2 3335-3637): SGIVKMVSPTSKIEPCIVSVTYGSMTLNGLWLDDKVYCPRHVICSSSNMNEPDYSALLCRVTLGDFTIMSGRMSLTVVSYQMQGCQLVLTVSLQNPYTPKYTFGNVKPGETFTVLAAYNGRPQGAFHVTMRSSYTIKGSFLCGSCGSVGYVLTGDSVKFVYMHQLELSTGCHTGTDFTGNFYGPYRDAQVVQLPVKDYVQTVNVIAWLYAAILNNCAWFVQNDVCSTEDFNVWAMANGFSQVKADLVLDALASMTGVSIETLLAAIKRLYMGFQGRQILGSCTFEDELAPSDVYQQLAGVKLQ

CYP2B6 = target: T1, CYP2B6 (Homo sapiens, UniProt P20813); test: Reversible CYP inhibition in human liver microsomes; assay type: in vitro ADME; settings: for activity at 0.1 µM: pH 7.4, CYP 2B6, 0.1 µM; for activity at 0.1 µM / activity at 0.214 µM / activity at 0.979 µM / activity at 2.09 µM / activity at 4.48 µM / activity at 20.5 µM / activity at 43.8 µM / activity at 93.5 µM / activity at 200 µM: read-out: Percent of Control Activity; for activity at 0.214 µM: pH 7.4, CYP 2B6, 0.214 µM; for activity at 0.979 µM: pH 7.4, CYP 2B6, 0.979 µM; for activity at 2.09 µM: pH 7.4, CYP 2B6, 2.09 µM; for activity at 4.48 µM: pH 7.4, CYP 2B6, 4.48 µM; for activity at 20.5 µM: pH 7.4, CYP 2B6, 20.5 µM; for activity at 43.8 µM: pH 7.4, CYP 2B6, 43.8 µM; for activity at 93.5 µM: pH 7.4, CYP 2B6, 93.5 µM; for activity at 200 µM: pH 7.4, CYP 2B6, 200 µM
T1 sequence (P20813 1-491): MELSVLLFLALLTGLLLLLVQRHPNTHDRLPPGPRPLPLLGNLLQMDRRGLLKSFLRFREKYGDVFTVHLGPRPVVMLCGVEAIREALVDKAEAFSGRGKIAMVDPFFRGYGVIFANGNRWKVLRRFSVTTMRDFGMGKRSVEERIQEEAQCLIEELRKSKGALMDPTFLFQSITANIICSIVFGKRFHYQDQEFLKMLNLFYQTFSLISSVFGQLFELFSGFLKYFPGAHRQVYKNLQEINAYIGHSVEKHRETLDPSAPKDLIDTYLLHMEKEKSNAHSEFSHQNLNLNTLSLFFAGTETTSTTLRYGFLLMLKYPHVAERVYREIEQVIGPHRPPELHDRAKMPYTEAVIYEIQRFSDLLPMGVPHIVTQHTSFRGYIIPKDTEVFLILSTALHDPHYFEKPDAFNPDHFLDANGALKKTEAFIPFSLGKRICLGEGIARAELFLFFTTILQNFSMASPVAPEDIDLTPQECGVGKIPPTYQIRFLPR

IBV-CoV 3CL^pro = IBV-CoV 3CL^pro (Avian infectious bronchitis virus, UniProt P0C6Y1); test: biochemical; settings: for Initial Velocity: triplicate, listed as Compound F2
IBV-CoV 3CL^pro, sequence (P0C6Y1 2780-3086): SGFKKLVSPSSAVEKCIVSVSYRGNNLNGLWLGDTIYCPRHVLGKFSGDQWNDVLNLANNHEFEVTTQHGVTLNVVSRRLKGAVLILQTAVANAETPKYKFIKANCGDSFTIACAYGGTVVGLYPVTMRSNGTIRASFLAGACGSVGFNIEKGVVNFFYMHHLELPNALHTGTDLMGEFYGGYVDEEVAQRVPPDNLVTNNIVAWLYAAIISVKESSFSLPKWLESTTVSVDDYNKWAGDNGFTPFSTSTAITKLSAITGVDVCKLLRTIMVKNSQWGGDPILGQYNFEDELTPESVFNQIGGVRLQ

[4] = human, human liver microsomes, 30-Minute Preincubation
[5] = human, human liver microsomes, Zero-Minute Preincubation

SMILES: COc1cccc2[nH]c(C(=O)N[C@@H](CC(C)C)C(=O)N[C@@H](C[C@@H]3CCNC3=O)C(=O)CO)cc12 [PF-00835231]
- EC50 (SARS-CoV-2): 60 ± 30 nM
- logD at 1 h [1]: 1.7
- Initial Velocity (HKU9-CoV 3CL^pro; [Compound F2] 1.95312 nM): 0.9878 and 0.9959 and 0.983
- Initial Velocity (HKU9-CoV 3CL^pro; [Compound F2] 3.90625 nM): 0.9913 and 0.9924 and 0.95
- Initial Velocity (HKU9-CoV 3CL^pro; [Compound F2] 7.8125 nM): 0.9224 and 0.9795 and 0.9137
- Initial Velocity (HKU9-CoV 3CL^pro; [Compound F2] 20 nM): 0.886 and 0.9243 and 0.93
- Initial Velocity (HKU9-CoV 3CL^pro; [Compound F2] 30 nM): 0.8569 and 0.8538 and 0.879
- Initial Velocity (HKU9-CoV 3CL^pro; [Compound F2] 31.25 nM): 0.8589 and 0.8929 and 0.8492
- Initial Velocity (HKU9-CoV 3CL^pro; [Compound F2] 40 nM): 0.8139 and 0.8202 and 0.8114
- Initial Velocity (HKU9-CoV 3CL^pro; [Compound F2] 50 nM): 0.7816 and 0.7894 and 0.7901
- Initial Velocity (HKU9-CoV 3CL^pro; [Compound F2] 60 nM): 0.7312 and 0.6789 and 0.7455
- Initial Velocity (HKU9-CoV 3CL^pro; [Compound F2] 62.5 nM): 0.7579 and 0.8162 and 0.7406
- Initial Velocity (HKU9-CoV 3CL^pro; [Compound F2] 80 nM): 0.682 and 0.6702 and 0.6841
- Initial Velocity (HKU9-CoV 3CL^pro; [Compound F2] 100 nM): 0.6302 and 0.62 and 0.5903
- Initial Velocity (HKU9-CoV 3CL^pro; [Compound F2] 200 nM): 0.2879 and 0.279 and 0.2522
- Initial Velocity (HKU9-CoV 3CL^pro; [Compound F2] 1000 nM): 0.000466 and 0.000256
- Ki (HKU9-CoV 3CL^pro; mean ± SEM): 0.74 ± 0.68 nM
- Ki (OC43-CoV 3CL^pro): 0.51 ± 0.12 nM
- tolerated dose (highest feasible dose tested) ([2]; male rats, 4 days continuous IV infusion): 246 mg/kg/day
- cholesterol vs controls ([2]; non-adverse): 1.3 x
- mean triglycerides vs controls ([2]; non-adverse): 1.9-3.6 x
- phosphorus vs controls ([2]; non-adverse): 1.1 x
- fm,CYP3A ([3]; Predicted from in vitro phenotyping data): 0.76
- CLint ([3]; Simcyp elimination input, Recombinant, CYP3A4, Pathway 1): 0.147 µL/min/pmol
- CL renal ([3]; human): 50 mL/min
- clearance ([3]; human, plasma): 417 mL/min
- Ki (HKU1-CoV 3CL^pro): 0.85 ± 0.24 nM
- Percent of Control Activity (CYP2B6; CYP 2B6, 0.1 µM, 30-Minute Preincubation, 0.1 µM): 95.8%
- Percent of Control Activity (CYP2B6; CYP 2B6, 0.1 µM, Zero-Minute Preincubation, 0.1 µM): 102.2% and 99.6%
- Percent of Control Activity (CYP2B6; CYP 2B6, 0.214 µM, 30-Minute Preincubation, 0.214 µM): 99.2% and 94.6%
- Percent of Control Activity (CYP2B6; CYP 2B6, 0.214 µM, Zero-Minute Preincubation, 0.214 µM): 97.5% and 98.9%
- Percent of Control Activity (CYP2B6; CYP 2B6, 0.979 µM, 30-Minute Preincubation, 0.979 µM): 92.8% and 97.7%
- Percent of Control Activity (CYP2B6; CYP 2B6, 0.979 µM, Zero-Minute Preincubation, 0.979 µM): 99.5% and 102.1%
- Percent of Control Activity (CYP2B6; CYP 2B6, 2.09 µM, Zero-Minute Preincubation, 2.09 µM): 101.6%
- Percent of Control Activity (CYP2B6; CYP 2B6, 4.48 µM, 30-Minute Preincubation, 4.48 µM): 102.3% and 98.3%
- Percent of Control Activity (CYP2B6; CYP 2B6, 4.48 µM, Zero-Minute Preincubation, 4.48 µM): 96.6%
- Percent of Control Activity (CYP2B6; CYP 2B6, 20.5 µM, 30-Minute Preincubation, 20.5 µM): 88.5% and 89.3%
- Percent of Control Activity (CYP2B6; CYP 2B6, 20.5 µM, Zero-Minute Preincubation, 20.5 µM): 90.2% and 87.9%
- Percent of Control Activity (CYP2B6; CYP 2B6, 43.8 µM, 30-Minute Preincubation, 43.8 µM): 89.3% and 86.6%
- Percent of Control Activity (CYP2B6; CYP 2B6, 43.8 µM, Zero-Minute Preincubation, 43.8 µM): 84.2% and 79.6%
- Percent of Control Activity (CYP2B6; CYP 2B6, 93.5 µM, 30-Minute Preincubation, 93.5 µM): 69.4% and 77.3%
- Percent of Control Activity (CYP2B6; CYP 2B6, 93.5 µM, Zero-Minute Preincubation, 93.5 µM): 73.2% and 72.0%
- Percent of Control Activity (CYP2B6; CYP 2B6, 200 µM, 30-Minute Preincubation, 200 µM): 59.5% and 60.0%
- Percent of Control Activity (CYP2B6; CYP 2B6, 200 µM, Zero-Minute Preincubation, 200 µM): 54.6% and 55.4%
- activity at 0.1 µM (CYP2B6; [4]): 102%
- activity at 0.1 µM (CYP2B6; [5]): 104%
- activity at 0.214 µM (CYP2B6; [4]): 103%
- activity at 0.214 µM (CYP2B6; [5]): 103%
- activity at 0.979 µM (CYP2B6; [4]): 100%
- activity at 0.979 µM (CYP2B6; [5]): 105%
- activity at 2.09 µM (CYP2B6; [4]): 101%
- activity at 2.09 µM (CYP2B6; [5]): 105%
- activity at 4.48 µM (CYP2B6; [4]): 103%
- activity at 4.48 µM (CYP2B6; [5]): 100%
- activity at 20.5 µM (CYP2B6; [4]): 91.3%
- activity at 20.5 µM (CYP2B6; [5]): 91.9%
- activity at 43.8 µM (CYP2B6; [4]): 87.1%
- activity at 43.8 µM (CYP2B6; [5]): 86.4%
- activity at 93.5 µM (CYP2B6; [4]): 73.5%
- activity at 93.5 µM (CYP2B6; [5]): 73.7%
- activity at 200 µM (CYP2B6; [4]): 59%
- activity at 200 µM (CYP2B6; [5]): 55.5%
- IC50 (CYP2B6; human, human liver microsomes, pH 7.4, probe bupropion (hydroxylation), at approximately KM): > 200000 nM
- Ki (IBV-CoV 3CL^pro): 4 ± 0.37 nM
- Initial Velocity (IBV-CoV 3CL^pro; [Compound F2] 1.95312 nM): 0.9151 and 0.9223 and 0.9303
- Initial Velocity (IBV-CoV 3CL^pro; [Compound F2] 3.90625 nM): 0.8719 and 0.9093 and 0.9026
- Initial Velocity (IBV-CoV 3CL^pro; [Compound F2] 7.8125 nM): 0.7237 and 0.7704 and 0.7494
- Initial Velocity (IBV-CoV 3CL^pro; [Compound F2] 31.25 nM): 0.2801 and 0.2824 and 0.2905
- Initial Velocity (IBV-CoV 3CL^pro; [Compound F2] 62.5 nM): 0.09406 and 0.0968 and 0.1078
- Initial Velocity (IBV-CoV 3CL^pro; [Compound F2] 250 nM): 0.02135 and 0.01561 and 0.01396
